Laboratory results as given in ChEMBL document CHEMBL4130467, “Isolation and Structural Characterization of Echinocystic Acid Triterpenoid Saponins from the Australian Medicinal and Food Plant Acacia ligulata” (J Nat Prod, 2017).

Tests used:
SK-MEL-28 = assay: Cytotoxicity against human SK-MEL-28 cells assessed as reduction in cell viability after 48 hrs by sulforhodamine B assay; type: functional, cell-based; conditions: SK-MEL-28, 48 h
HFF = assay: Cytotoxicity against HFF assessed as reduction in cell viability after 48 hrs by sulforhodamine B assay; type: cell-based; conditions: Homo sapiens

Compound	IC50 (SK-MEL-28) [µM]	IC50 (HFF) [µM]
CC(=O)N[C@H]1[C@H](O[C@H]2CC[C@]3(C)[C@H]4CC=C5[C@@H]6CC(C)(C)CC[C@]6(C(=O)O[C@@H]6OC[C@H](O)[C@H](O)[C@H]6O[C@@H]6O[C@@H](C)[C@H](O[C@@H]7O[C@@H](CO)[C@H](O)[C@H]7O)[C@@H](O[C@@H]7OC[C@@H](O)[C@H](O)[C@H]7O)[C@H]6O)[C@H](O)C[C@@]5(C)[C@]4(C)CC[C@H]3C2(C)C)O[C@H](CO)[C@@H](O[C@@H]2O[C@H](CO)[C@@H](O)[C@H](O)[C@H]2O)[C@@H]1O	15	14.2
CC(=O)N[C@H]1[C@H](O[C@H]2CC[C@]3(C)[C@H]4CC=C5[C@@H]6CC(C)(C)CC[C@]6(C(=O)O[C@@H]6OC[C@H](O)[C@H](O)[C@H]6O[C@@H]6O[C@@H](C)[C@H](O[C@@H]7O[C@@H](COC(C)=O)[C@H](O)[C@H]7O)[C@@H](O[C@@H]7OC[C@@H](O)[C@H](O)[C@H]7O)[C@H]6O)[C@H](O)C[C@@]5(C)[C@]4(C)CC[C@H]3C2(C)C)O[C@H](CO)[C@@H](O[C@@H]2O[C@H](CO)[C@@H](O)[C@H](O)[C@H]2O)[C@@H]1O	25	13.4
